Consider 52 compounds from US8778929B2, “Substituted heteroaryl inhibitors of B-RAF” (Boehringer Ingelheim International GmbH, priority 2008, dated 2014).

In this test the target is B-Raf (V600E)-kinase (Homo sapiens, UniProt P15056, V600E). In words: Kinase test B-Raf (V600E). The settings on record: 100% = no inhibition, 0% = total inhibition, read-out: % CTL (residual activity of the enzyme relative to DMSO control); for remaining activity at 2 µM: compound concentration 2 μM; for remaining activity at 0.29 µM: measurement at 0.29 μM (*). Type of test: biochemical. In short, it runs like this: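 Kinase preincubated with compound (typically 2 μM to 0.119 nM or 0.017 nM, 5% DMSO) 1 h at RT, then reacted 60 min at RT with 250 μM ATP and biotinylated MEK1. Phospho-MEK (Ser217/221) captured on streptavidin, detected by europium time-resolved fluorescence; IC50 from dose-response curves.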
B-Raf (V600E)-kinase, sequence (P15056 whole entry V600E): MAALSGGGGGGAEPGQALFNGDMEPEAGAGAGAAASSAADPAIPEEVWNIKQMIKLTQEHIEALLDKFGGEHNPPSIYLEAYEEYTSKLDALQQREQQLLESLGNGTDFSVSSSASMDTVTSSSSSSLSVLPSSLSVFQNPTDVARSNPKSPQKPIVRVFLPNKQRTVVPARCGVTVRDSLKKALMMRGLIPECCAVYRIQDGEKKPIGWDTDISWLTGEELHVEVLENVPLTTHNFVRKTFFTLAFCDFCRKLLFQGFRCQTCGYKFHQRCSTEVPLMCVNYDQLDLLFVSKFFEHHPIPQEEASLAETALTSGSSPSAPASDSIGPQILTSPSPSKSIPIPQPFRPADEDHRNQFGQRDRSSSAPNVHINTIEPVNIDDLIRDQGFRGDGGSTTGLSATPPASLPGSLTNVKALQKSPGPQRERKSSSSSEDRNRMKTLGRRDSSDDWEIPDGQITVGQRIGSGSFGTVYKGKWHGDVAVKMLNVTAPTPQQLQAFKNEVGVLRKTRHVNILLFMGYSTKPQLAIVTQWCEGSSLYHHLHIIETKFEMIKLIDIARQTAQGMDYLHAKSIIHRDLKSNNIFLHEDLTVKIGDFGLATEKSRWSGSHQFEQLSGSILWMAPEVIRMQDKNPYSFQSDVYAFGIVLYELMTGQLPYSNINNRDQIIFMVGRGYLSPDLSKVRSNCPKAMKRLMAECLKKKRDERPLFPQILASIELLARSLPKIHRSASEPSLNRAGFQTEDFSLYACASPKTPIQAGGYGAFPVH

With `Cc1ncc(NC(=O)c2cccc(OC(F)(F)F)c2)cc1-n1cc(-c2cnn(C)c2C)nn1` [XII-8], the remaining activity at 2 µM was 6.4%.

For the compound `Cc1ccc(C(F)(F)F)cc1C(=O)Nc1cnc(C)c(-n2cc(-c3cnn(C)c3C)nn2)c1` [XII-9], the remaining activity at 2 µM came to 6.6%. Still for that read-out and setting: the result for `Cc1ncc(NC(=O)c2cccc(C(C)(C)C#N)c2)cc1-n1cc(-c2cncnc2)nn1` [XII-10] reads 2.5%. As for `Cc1ncc(NC(=O)c2cccc(C(C)(C)C#N)c2)cc1-n1cc(-c2cccnc2)nn1` [XII-11], under “measurement at 1.43 μM (***)”, the remaining activity at 1.43 µM amounted to 1.5%. As to `COc1cncc(-c2cn(-c3cc(NC(=O)c4cccc(C(C)(C)C#N)c4)cnc3C)nn2)c1` [XII-12], the remaining activity at 2 µM was determined as 5.2%.

`Cc1ncc(NC(=O)c2cccc(C(C)(C)C#N)c2)cc1-n1cc(-c2cncc(C#N)c2)nn1` [XII-13]: the remaining activity at 2 µM was 0.9%. Regarding `CC(=O)Nc1ncc(-c2cn(-c3cc(NC(=O)c4cccc(C(C)(C)C#N)c4)cnc3C)nn2)s1` [XII-14], the remaining activity at 0.29 µM came to 0.9%. For the compound `Cc1ncc(NC(=O)c2cc(OC(F)(F)F)cc(N3CCN(C)CC3)c2)cc1-n1cc(-c2cnn(C)c2C)nn1` [XII-15], the remaining activity at 2 µM is 0.8%. Same read-out and setting: under `COc1cncc(-c2cn(-c3cc(NC(=O)c4cc(OC(F)(F)F)cc(N5CCN(C)CC5)c4)cnc3C)nn2)c1` [XII-16] stands 0.7%; under `Cc1ncc(NC(=O)c2cc(OC(F)(F)F)cc(N3CCN(C)CC3)c2)cc1-n1cc(-c2cccnc2)nn1` [XII-17], 0.9%. As to `Cc1cn2c(-c3cn(-c4cc(NC(=O)c5cc(N6CCN(C)CC6)c(C)c(C(F)(F)F)c5)cnc4C)nn3)cnc2cn1` [XII-18], the remaining activity at 2 µM came out at 2.1%.

As to `CC(=O)Nc1ncc(-c2cn(-c3cc(NC(=O)c4cc(OC(F)(F)F)cc(N5CCN(C)CC5)c4)cnc3C)nn2)s1` [XII-19], the remaining activity at 2 µM is 6.5%. The same measure, in the same setting: the result for `Cc1ncc(NC(=O)c2cc(OC(F)(F)F)cc(N(C)CCN(C)C)c2)cc1-n1cc(-c2cnn(C)c2C)nn1` [XII-20] reads 1.6%.

In the case of `Cc1ncc(NC(=O)c2cc(NCCN(C)C)cc(OC(F)(F)F)c2)cc1-n1cc(-c2cnn(C)c2C)nn1` [XII-21], the remaining activity at 2 µM was 1.5%. Same read-out and setting: the result for `CCN1CCN(c2cc(OC(F)(F)F)cc(C(=O)Nc3cnc(C)c(-n4cc(-c5cnn(C)c5C)nn4)c3)c2)CC1` [XII-22] reads 3.4%. The same measure, in the same setting: the result for `Cc1ncc(-c2cn(-c3cc(NC(=O)c4cc(OC(F)(F)F)cc(N5CCN(C)CC5)c4)cnc3C)nn2)s1` [XII-23] reads 7.2%; that for `COCCN1CCN(c2cc(OC(F)(F)F)cc(C(=O)Nc3cnc(C)c(-n4cc(-c5cnn(C)c5C)nn4)c3)c2)CC1` [XII-24], 3.8%; that for `Cc1ncc(NC(=O)c2cc(OC(F)(F)F)cc(N3CCOCC3)c2)cc1-n1cc(-c2cnn(C)c2C)nn1` [XII-25], 3.9%. Same read-out and setting: under `Cc1ncc(NC(=O)c2cc(OC(F)(F)F)cc(N3CCN(C)CC3)c2)cc1-n1cc(-c2cncnc2)nn1` [XII-26] stands 2.2%; under `Cc1ncc(NC(=O)c2cc(OC(F)(F)F)cc(N3CCN(C)CC3)c2)cc1-n1cc(-c2cncc(C#N)c2)nn1` [XII-27], 2.4%; under `Cc1ncc(NC(=O)c2cc(OC(F)(F)F)cc(N(C)C3CCN(C)C3)c2)cc1-n1cc(-c2cnn(C)c2C)nn1` (stereo not shown) [XII-28], 2%.

As for `Cc1ncc(NC(=O)c2cc(OC(F)(F)F)cc(N3CCC(N(C)C)C3)c2)cc1-n1cc(-c2cnn(C)c2C)nn1` (stereo not shown) [XII-29], the remaining activity at 2 µM is 1.6%. Still for that read-out and setting: the result for `Cc1ncc(NC(=O)c2cc(OC(F)(F)F)cc(C3=CCNCC3)c2)cc1-n1cc(-c2cnn(C)c2C)nn1` [XII-30] reads 1.8%; that for `COCCCN1CCN(c2cncc(-c3cn(-c4cc(NC(=O)c5cc(C(F)(F)F)ccn5)cnc4C)nn3)c2)CC1` [XII-31], 1.9%. Take `Cc1ncc(NC(=O)c2cc(C(F)(F)F)ccn2)cc1-n1cc(-c2cncc(N3CCN(C(C)(C)C)CC3)c2)nn1` [XII-32]: the remaining activity at 2 µM is 2.9%.

As for `CCOCCN1CCN(c2cncc(-c3cn(-c4cc(NC(=O)c5cc(C(F)(F)F)ccn5)cnc4C)nn3)c2)CC1` [XII-33], the remaining activity at 2 µM came out at 1.7%. Still for that read-out and setting: under `Cc1ncc(NC(=O)c2cccc(C(C)(C)C#N)c2)cc1-n1cc(-c2cncc(N3CCN(C)CC3)c2)nn1` [XII-34] stands 0.8%; under `Cc1ncc(NC(=O)c2cc(C(F)(F)F)ccn2)cc1-n1cc(-c2cncc(N3CCN(C(C)C)CC3)c2)nn1` [XII-35], 1.7%; under `Cc1ncc(NC(=O)c2cccc(OC(F)(F)F)c2)cc1-n1cc(-c2cncc(N3CCN(C)CC3)c2)nn1` [XII-36], 1.3%. On the same count and under the same terms, under `Cc1ncc(NC(=O)c2cc(C(F)(F)F)ccn2)cc1-n1cc(-c2cncc(N3CCN(CC(C)C)CC3)c2)nn1` [XII-37] stands 2.3%; under `CCN1CCN(c2cncc(-c3cn(-c4cc(NC(=O)c5cc(C(F)(F)F)ccn5)cnc4C)nn3)c2)CC1` [XII-38], 2.1%. The same measure, in the same setting: under `CCN1CCN(c2cncc(-c3cn(-c4cc(NC(=O)c5ccc(OC)c(C(F)(F)F)c5)cnc4C)nn3)c2)CC1` [XII-39] stands 2.5%. `COc1ccc(C(=O)Nc2cnc(C)c(-n3cc(-c4cncc(N5CCN(C)CC5)c4)nn3)c2)cc1C(F)(F)F` [XII-40]: the remaining activity at 0.29 µM is 3%. Consider `CCCN1CCN(c2cncc(-c3cn(-c4cc(NC(=O)c5cc(C(F)(F)F)ccn5)cnc4C)nn3)c2)CC1` [XII-41], for which the remaining activity at 2 µM was determined as 3.1%. The same measure, in the same setting: under `Cc1ncc(NC(=O)c2cccc(OC(F)(F)F)c2)cc1-n1cc(-c2cncc(N3CCN(C(C)C)CC3)c2)nn1` [XII-42] stands 4.3%; under `COc1ccc(C(=O)Nc2cnc(C)c(-n3cc(-c4cncc(N5CCN(C(C)C)CC5)c4)nn3)c2)cc1C(F)(F)F` [XII-43], 2.1%; under `CCOCCN1CCN(c2cncc(-c3cn(-c4cc(NC(=O)c5ccc(OC)c(C(F)(F)F)c5)cnc4C)nn3)c2)CC1` [XII-44], 1.9%. Still for that read-out and setting: the result for `COc1ccc(C(=O)Nc2cnc(C)c(-n3cc(-c4cncc(N5CCN(C(C)(C)C)CC5)c4)nn3)c2)cc1C(F)(F)F` [XII-45] reads 2.9%; that for `COCCCN1CCN(c2cncc(-c3cn(-c4cc(NC(=O)c5ccc(OC)c(C(F)(F)F)c5)cnc4C)nn3)c2)CC1` [XII-46], 1.8%; that for `Cc1ncc(NC(=O)c2cccc(OC(F)(F)F)c2)cc1-n1cc(-c2cncc(N3CCN(C(C)(C)C)CC3)c2)nn1` [XII-47], 4%. On the same count and under the same terms, under `COCCCN1CCN(c2cncc(-c3cn(-c4cc(NC(=O)c5cccc(OC(F)(F)F)c5)cnc4C)nn3)c2)CC1` [XII-48] stands 2.4%. Turning to `Cc1ncc(NC(=O)c2cccc(C(C)(C)C#N)c2)cc1-n1cc(-c2cncc(N3CCN(CC4CC4)CC3)c2)nn1` [XII-49], the remaining activity at 2 µM came out at 2.3%. The same measure, in the same setting: the result for `Cc1ncc(NC(=O)c2cccc(C(C)(C)C#N)c2)cc1-n1cc(-c2cncc(N3CCN(C(C)C)CC3)c2)nn1` [XII-50] reads 6.8%; that for `CCN1CCN(c2cncc(-c3cn(-c4cc(NC(=O)c5cccc(C(C)(C)C#N)c5)cnc4C)nn3)c2)CC1` [XII-51], 2.3%; that for `Cc1ncc(NC(=O)c2cccc(C(C)(C)C#N)c2)cc1-n1cc(-c2cncc(NCCN(C)C)c2)nn1` [XII-52], 7%.

Turning to `Cc1ncc(NC(=O)c2cccc(C(C)(C)C#N)c2)cc1-n1cc(-c2cncc(N(C)CCN(C)C)c2)nn1` [XII-53], the remaining activity at 2 µM came to 7%.

With `CCOCCN1CCN(c2cncc(-c3cn(-c4cc(NC(=O)c5cccc(OC(F)(F)F)c5)cnc4C)nn3)c2)CC1` [XII-54], the remaining activity at 2 µM was 10.8%. On the same count and under the same terms, the result for `CCN1CCN(c2cncc(-c3cn(-c4cc(NC(=O)c5cccc(OC(F)(F)F)c5)cnc4C)nn3)c2)CC1` [XII-55] reads 1.8%; that for `Cc1ncc(NC(=O)c2cc(C(F)(F)F)ccn2)cc1-n1cc(-c2cncc(N3CCN(C)CC3)c2)nn1` [XII-57], 0.9%. On the same count and under the same terms, the result for `Cc1ncc(NC(=O)c2cccc(C(C)(C)C#N)c2)cc1-n1cc(-c2cncc(CO)c2)nn1` [XII-63] reads 3.8%; that for `Cc1ncc(NC(=O)c2cccc(C(C)(C)C#N)c2)cc1-n1cc(-c2cncc(CN(C)C)c2)nn1` [XII-64], 0.9%. On to `Cc1ncc(NC(=O)c2cccc(C(C)(C)C#N)c2)cc1-n1cc(-c2cncc(CN3CCCC3)c2)nn1` [XII-65], for which the remaining activity at 2 µM stood at 0.9%.
